“Also recorded” adds a separate entry of the source.
Columns and labels:
[1] = molecular target: NanoBiT™ Binary luciferase (Oplophorus gracilirostris, UniProt Q9GV45, A31E/A60N/A81I/F95D/I117V/K70R/L54V/L99Q/M102K/P142E/Q151K/Q38R/Q45L/V71I/Y165I); assay: Inhibition of NanoBiT Binary luciferase (HiBiT + LgBiT); type: biochemical
Experimental: Compounds were also tested for their ability to inhibit the NanoBiT™ Binary luciferase. HiBiT (SEQ ID NO: 3) and LgBiT (SEQ ID NO: 4) (two subunits of the NanoBiT™ luciferase) were incubated with furimazine or furimazine-h for 15 minutes. Following the incubation period, 10 μM furimazine was added. […] This signal rapidly degrades to a fraction of the signal observed in the furimazine positive control wells. Addition of furimazine to the furimazine positive control wells results in an increase in bioluminescence.

NanoLuc [2] = molecular target: T1, NanoLuc (Oplophorus gracilirostris, UniProt Q9GV45, A31E/A60N/A81I/F95D/I117V/K70R/L54V/L99Q/M102K/N193R/P142E/Q151K/Q38R/Q45L/V71I/Y165I); assay: Inhibition of NanoLuc luciferase: blocking of furimazine luminescence after pre-incubation; type: biochemical; conditions: for Inhibition of NanoLuc (bioluminescence upon later furimazine addition): compound incubated with NanoLuc first, then furimazine (10 μM) added
Experimental: Compounds were also tested for their ability to block furimazine luminescence with NanoLuc. Typically, NanoLuc (0.4 μg/mL) in DMEM was incubated with either furimazine or test compound (50 μM) while monitoring RLU's with a GloMax® luminometer for 10-60 minutes. After the set time, the plate was removed from the instrument, and a dose of furimazine (10 μM) was added to the well containing the test compound and monitored for 10-60 minutes.
FIGS. 3A-B depicts inhibition of Nluc luciferase by furimazine-h. Furimazine-h (10 μM) was incubated with NanoLuc in NanoGlo or DMEM for 15 or 10 minutes, respectively. This bright signal rapidly degrades to a fraction of the signal observed in the furimazine positive control wells.
FIG. 9 depicts inhibition of Nluc luciferase by furimazine-h. This is a reverse addition experiment as compared to FIG. 3. Furimazine (10 μM) was incubated with NanoLuc in NanoGlo® buffer for 15 minutes.
JRW-0855 and JRW-1088 were incubated with NanoLuc in DMEM for 12 minutes. […] After the incubation period, 10 μM furimazine was added to the well.

NanoLuc [3] = molecular target: T1, NanoLuc; type: biochemical; conditions: relative value, Furimazine set to 1; NanoLuc; read three minutes after substrate addition
Experimental: Luminescence Assay Procedure:
Each compound to be screened was dissolved in DMSO (5 mM) and then further diluted to 100 μM in NANO-GLO® Luciferase Assay Buffer. Km values were determined by first serially diluting substrates two-fold into NANO-GLO® Luciferase Assay Buffer. Substrate dilutions were then combined with an equal volume of NanoLuc diluted to 4 ng/ml in TBS+0.01% BSA. Autoluminescence was measured by combining the 100 uM dilution of substrate with TBS+0.01% BSA. Luminescence and autoluminescence values were measured in a GloMax®-Multi+ luminometer three minutes after substrate addition. Signal decay was measured by combining equal volumes of 100 uM of substrate with 4 ng/ml NanoLuc in TBS+0.01% BSA and then samples were read in five minute intervals for two hours using a GloMax®-Multi+. Km was calculated using GraphPad Prism using nonlinear Michaelis-Menten regression. Signal half-life values were calculated using GraphPad Prism Non-linear decay, plateau set to zero.

[4] = system: NanoLuc-HaloTag (Nluc-HT); assay: Fluorescent labeling of NanoLuc-HaloTag, SDS/PAGE fluorescence imaging; type: biochemical; conditions: 0.5 μM protein, 50 μM label, 30 minutes, room temperature
Experimental: The efficiency of the NanoLuc suicide substrates was compared with a chloroalkane-FAM substrate with a fusion protein in which the HaloTag protein (SEQ ID NO: 5) is fused to either glutathione transferase (GST) or NanoLuc.
Either FAM chloroalkane or coelenterazine FAM substrate was incubated with glutathione transferase-HaloTag (GST-HT) or NanoLuc-HaloTag (Nluc-HT) fusions. The reactions were with 0.5 μM protein (GST-HT or Nluc-HT) and 50 μM of label (100× excess of label) and incubated for 30 minutes at room temperature. The sample titrations of each sample were then loaded to the SDS/PAGE gel. The fluorescence (473ex) (Cy2 filter set) was read and quantified. […] Results are quantified in FIG. 8B.

[5] = system: NanoLuc-HaloTag fusion protein; assay: Direct and two-step labeling with TCO-tetrazine or DBCO-azide pair, fluorescence imaging on SDS/PAGE gel; type: biochemical; conditions: for Two-step labeling with tetrazine-FAM (JRW-1577): second step tetrazine-FAM (JRW-1577)
Experimental: Similar to the previous example, NanoLuc-HaloTag protein was incubated with compounds to either directly label or label via the two-step process with FAM. Compounds were incubated with the NanoLuc-HaloTag fusion protein and analyzed by florescence imaging on SDS/PAGE gel.

[6] = Stability in solution noted at preparation; type: physicochemical; conditions: note at preparation

T1 sequence (Q9GV45 28-196 with tags or gaps with the stated changes limits assumed): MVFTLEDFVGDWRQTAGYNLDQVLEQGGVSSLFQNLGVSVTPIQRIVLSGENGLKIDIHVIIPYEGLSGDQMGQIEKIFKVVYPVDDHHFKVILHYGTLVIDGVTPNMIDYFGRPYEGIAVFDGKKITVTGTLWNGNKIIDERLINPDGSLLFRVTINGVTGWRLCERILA
NanoBiT™ Binary luciferase, sequence (Q9GV45 other isoform, or with tags, fused parts or gaps with the stated changes): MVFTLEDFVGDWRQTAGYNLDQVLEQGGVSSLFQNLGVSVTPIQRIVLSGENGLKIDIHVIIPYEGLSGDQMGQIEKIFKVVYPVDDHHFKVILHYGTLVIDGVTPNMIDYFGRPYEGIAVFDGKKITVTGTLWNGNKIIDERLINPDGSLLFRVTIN

SMILES	Inhibition of NanoLuc (bioluminescence upon later furimazine addition) (NanoLuc [2])	RLU (at 100 μM) (NanoLuc [3])	Stability in solution [6]	also measured
O=c1c(Cc2ccco2)nc2c(Cc3ccccc3)[nH]c(-c3ccc(O)cc3)cn1-2 [Furimazine-h, 8-benzyl-2-(furan-2-ylmethyl)-6-(4-hydroxyphenyl)imidazo[1,2-a]pyrazin-3(7H)-one, reference compound]	NanoLuc is inhibited; also recorded: exemplary suicide substrates of NanoLuc	1		Inhibition of NanoBiT luciferase ([1]; 15 minutes incubation, then 10 μM furimazine added): effectively inhibited; Initial luminescent signal compared with furimazine ([1]; HiBiT and LgBiT incubated with compound): comparable to that of furimazine; Inhibition of NanoLuc, reverse addition (NanoLuc [2]; furimazine (10 μM) with NanoLuc in NanoGlo buffer 15 minutes, then compound added): rapid signal decay
O=C(NCCCCCCCCOc1ccc(Cc2nc3c(Cc4ccccc4)[nH]c(-c4ccc(O)cc4)cn-3c2=O)cc1F)c1ccc(C(=O)[O-])c(-c2c3ccc(O)cc3[o+]c3cc(O)ccc23)c1 [JRW-0906, 4-((8-(4-((8-benzyl-6-(4-hydroxyphenyl)-3-oxo-3,7-dihydroimidazo[1,2-a]pyrazin-2-yl)methyl)-2-fluorophenoxy)octyl)carbamoyl)-2-(3,6-dihydroxyxanthylium-9-yl)benzoate]	exemplary suicide substrates of NanoLuc	0.036		Labeling efficiency relative to the chloroalkane-HT system [4]: ~50%
O=C(NCCOCCOCCCCCCCl)OC1CC/C=C/CCC1 (stereo not shown) [JRW-1567, (E)-cyclooct-4-en-1-yl (2-(2-((6-chlorohexyl)oxy)ethoxy)ethyl)carbamate]				Two-step labeling with tetrazine-FAM (JRW-1577) [5]: two-step labeling occurs
O=C(CCC(=O)N1Cc2ccccc2C#Cc2ccccc21)NCCCCCCCCOc1ccc(Cc2nc3c(Cc4ccccc4)[nH]c(-c4ccc(O)cc4)cn-3c2=O)cc1F [JRW-1549, N^1-(8-(4-((8-benzyl-6-(4-hydroxyphenyl)-3-oxo-3,7-dihydroimidazo[1,2-a]pyrazin-2-yl)methyl)-2-fluorophenoxy)octyl)-N^4-DBCO-succinamide]				Two-step labeling with Azide-FAM ([5]; second step Azide-FAM): little to no labeling
O=C(NCCCCCCCCOc1ccc(Cc2nc3c(Cc4ccccc4)[nH]c(-c4ccc(O)cc4)cn-3c2=O)cc1F)OC1CC/C=C/CCC1 (stereo not shown) [JRW-1566, (E)-cyclooct-4-en-1-yl (8-(4-((8-benzyl-6-(4-hydroxyphenyl)-3-oxo-3,7-dihydroimidazo[1,2-a]pyrazin-2-yl)methyl)-2-fluorophenoxy)octyl)carbamate]				Two-step labeling with tetrazine-FAM (JRW-1577) [5]: two-step labeling of NanoLuc
CN(C)c1ccc2c(-c3cc(C(=O)NCCCCCCCCOc4ccc(Cc5nc6c(Cc7ccccc7)[nH]c(-c7ccc(O)cc7)cn-6c5=O)cc4F)ccc3C(=O)[O-])c3ccc(N(C)C)cc3[o+]c2c1 [JRW-0912, 4-((8-(4-((8-benzyl-6-(4-hydroxyphenyl)-3-oxo-3,7-dihydroimidazo[1,2-a]pyrazin-2-yl)methyl)-2-fluorophenoxy)octyl)carbamoyl)-2-(3,6-bis(dimethylamino)xanthylium-9-yl)benzoate]	did not inhibit NanoLuc	0.000061	instability in solution	
COc1cc2c(c(Cl)c1OC(C)=O)Oc1c(cc(OC)c(OC(C)=O)c1Cl)C21OC(=O)c2ccc(C(=O)NCCCCCCCCOc3ccc(Cc4nc5c(Cc6ccccc6)[nH]c(-c6ccc(O)cc6)cn-5c4=O)cc3F)cc21 [JRW-0986, 6-((8-(4-((8-benzyl-6-(4-hydroxyphenyl)-3-oxo-3,7-dihydroimidazo[1,2-a]pyrazin-2-yl)methyl)-2-fluorophenoxy)octyl)carbamoyl)-4′,5′-dichloro-2′,7′-dimethoxy-3-oxo-3H-spiro[isobenzofuran-1,9′-xanthene]-3′,6′-diyl diacetate]	did not inhibit NanoLuc	0.00005	instability in solution	
CN(C)c1ccc2c(-c3cc(C(=O)NCCOCCOCCC(=O)NCCCCCCCCOc4ccc(Cc5cc6c(Cc7ccccc7)[nH]c(-c7ccc(O)cc7)cn-6c5=O)cc4F)ccc3C(=O)[O-])c3ccc(N(C)C)cc3[o+]c2c1 [JRW-0927, 4-((2-(2-(3-((8-(4-((1-benzyl-3-(4-hydroxyphenyl)-6-oxo-2,6-dihydropyrrolo[1,2-a]pyrazin-7-yl)methyl)-2-fluorophenoxy)octyl)amino)-3-oxopropoxy)ethoxy)ethyl)carbamoyl)-2-(3,6-bis(dimethylamino)xanthylium-9-yl)benzoate]	did not inhibit NanoLuc	0.0000024	instability in solution	
[N-]=[N+]=NCCCCCCCCOc1ccc(Cc2nc3c(Cc4ccccc4)[nH]c(-c4ccc(O)cc4)cn-3c2=O)cc1F [JRW-1022, 2-(4-((8-azidooctyl)oxy)-3-fluorobenzyl)-8-benzyl-6-(4-hydroxyphenyl)imidazo[1,2-a]pyrazin-3(7H)-one]	partial Nluc inhibitors			Two-step labeling with DBCO-FAM ([5]; second step DBCO-FAM): two-step labeling occurs
CC(=O)Oc1ccc2c(c1)Oc1cc(OC(C)=O)ccc1C21OC(=O)c2ccc(C(=O)NCCCCCCCCOc3ccc(Cc4nc5c(Cc6ccccc6)[nH]c(-c6ccc(O)cc6)cn-5c4=O)cc3F)cc21 [JRW-0972, 6-((8-(4-((8-benzyl-6-(4-hydroxyphenyl)-3-oxo-3,7-dihydroimidazo[1,2-a]pyrazin-2-yl)methyl)-2-fluorophenoxy)octyl)carbamoyl)-3-oxo-3H-spiro[isobenzofuran-1,9′-xanthene]-3′,6′-diyl diacetate]	did not inhibit NanoLuc	0.00005	instability in solution	

From US11655247B2, “Nanoluc suicide substrates” (PROMEGA CORPORATION, priority 2018, dated 2023)
